Data from patent US9994865B2, “PEG-Prom mediated surface expression of avidin/streptavidin” (The Johns Hopkins University, priority 2013, dated 2018).

Tests used:
[1] = tested on: avidin-expressing and non-expressing tumor cells; conditions: expected outcome; LD50 against expressing vs. non-expressing cells
From the text: The LD50 against avidin-expressing and non-expressing tumor cells of each will be evaluated, in vitro. The maximum tolerated dose and anti-tumor efficacy of each will also be evaluated in PCa models. […] Upon necropsy, tumor xenografts will be pathologically analyzed to evaluate cell killing. […] Tumor size will be measured with calipers, or with BLI in the case of g- or fLuc-expressing cells.

tumors and metastases = conditions: prior studies, adenovirus-based oncolytic gene delivery, nude mice; cited from earlier work

## ^90Y-CHX-A-DTPA-biotin [^90Y conjugate]
[1]
  specificity of cell killing to avidin expressing cells: less specific to avidin expressing cells

## ^213Bi-CHX-A-DTPA-biotin [^213Bi conjugate]
[1]
  specificity of cell killing to avidin expressing cells: highly specific to expressing cells

B1: MDA-7/IL-24: melanoma differentiation associated gene-7/Interleukin-24, immunomodulatory cytokine, delivered by adenovirus (protein, UniProt Q13007 52-206, looked up)
Interleukin-24: QEFHFGPCQVKGVVPQKLWEAFWAVKDTMQAQDNITSARLLQQEVLQNVSDAESCYLVHTLLEFYLKTVFKNYHNRTVEVRTLKSFSTLANNFVLIVSQLQPSQENEMFSIRDSAHRRFLLFRRAFKQLDVEAALTKALGEVDILLTWMQKFYKL
modifications: adenovirus-delivered
notes: melanoma differentiation associated gene-7/Interleukin-24, immunomodulatory cytokine, delivered by adenovirus
Tumors and metastases
  effect on tumors and metastases: complete eradication of tumors and metastases
